Molecules are shown by their SMILES. Calls of active or inactive are those of the source. The rule behind the calls is not given here.

This assay has as its system Mus musculus. Description: Antifibrotic activity in C57BL/6 mouse model of bleomycin-induced lung fibrosis assessed as reduction in collagen level in lung at 60 mg/kg, po pre-treated 1 hr to 1 day before bleomycin injection and measured after 14 to 28 days by hydroxyproline assay. Type of assay: functional, organism-based.

On to `NCc1cc(=O)c2cc(Br)ccc2[nH]1`, for which the outcome was Active.
